Experimental data: patent US20230226207A1, “Camptothecin Drug Having High-Stability Hydrophilic Connecting Unit And Conjugate Thereof” (SICHUAN BAILI PHARM CO., LTD, priority 2020, published 2023)

Legend:
[1] = test system: N87 (human gastric cancer cells); experiment: In vitro proliferation inhibition of N87 tumor cells (MTS); format: cell-based; settings: 120 h, 5 days
Procedure: (§1) 1) Experimental Materials • Cells: from the cell bank of the Chinese Academy of Sciences; • Tumor cell culture medium: Gibco; • FBS: BIOWEST;
(§2) 2) Preparation of Medium • Growth medium (with 10% FBS, Penicillin/streptomycin (100 U/mL); • Detection medium (with 1% FBS, Penicillin/streptomycin (100 U/mL);
(§3) Turn on the UV lamp in the biological safety cabinet 30 minutes in advance, and ventilate for 3 minutes. Put the growth medium, detection medium, D-PBS and pancreatin into a 37° C. constant temperature water bath to preheat, then disinfect the surface with alcohol and put it in a biological safety cabinet. Select cells with a confluence of ˜80% (logarithmic growth phase), put them in a biological safety cabinet, aspirate the old medium, rinse with D-PBS, aspirate and discard, digest with trypsin for 2 to 3 minutes, and then add to growth Stop trypsin in the medium, and centrifuge at 500×g for 5 min. Aspirate the centrifugal supernatant, mix well with 4 mL detection medium, take 100 uL for counting (take out 50 uL cell fluid, add 50 μL 0.4% Trypan Blue Stain and mix well, and count after mixing). Plate the plate according to the number of cells set before, and plate 80 uL/well in a 96-well plate. Only add 80 uL detection medium to wells E11, F11, and G11, and add 200 uL DPBS to the edge holes to seal the edges. […]
(§4) Take out the MTS reagent after the test sample is exposed for 5 days. […] After the reaction, the 96-well plate was taken out, the OD490 nm absorbance value was detected in the microplate reader, and the data was recorded, sorted, and stored.

[2] = test system: SK-BR-3 (human breast adenocarcinoma cells); experiment: In vitro proliferation inhibition of SK-BR-3 tumor cells (MTS); format: cell-based; settings: 120 h, SK-BR-3 cells, 5 days
Procedure: as §1, §2, §3, §4

| SMILES | IC50 [1] [nM] | IC50 [2] [nM] |
| --- | --- | --- |
| CC[C@@]1(O)C(=O)OCc2c1cc1n(c2=O)Cc2c-1nc1cc(F)c(C)c3c1c2[C@@H](NC(=O)CO)CC3 [d1] | 13.3 | 104 |
| CC[C@@]1(O)C(=O)OCc2c1cc1n(c2=O)Cc2c-1nc1cc(F)c(C)c3c1c2[C@@H](NC(=O)[C@H](C)O)CC3 [d3] | 8.03 | 183 |
| CC[C@@]1(O)C(=O)OCc2c1cc1n(c2=O)Cc2c-1nc1cc(F)c(C)c3c1c2[C@@H](NC(=O)[C@H](O)C(F)(F)F)CC3 [d6] | 2.15 | 239 |
